These results are taken from PMC4522399 (Journal of pharmaceutical sciences, 2015).

A short description of one data set: in vivo. As to conditions: male, Balb/c, mouse, iv, 0.08 mmol/kg.
The next data set concerns the target T1, human NTCP (Homo sapiens, UniProt Q14973).
T1 sequence (Q14973 1-349): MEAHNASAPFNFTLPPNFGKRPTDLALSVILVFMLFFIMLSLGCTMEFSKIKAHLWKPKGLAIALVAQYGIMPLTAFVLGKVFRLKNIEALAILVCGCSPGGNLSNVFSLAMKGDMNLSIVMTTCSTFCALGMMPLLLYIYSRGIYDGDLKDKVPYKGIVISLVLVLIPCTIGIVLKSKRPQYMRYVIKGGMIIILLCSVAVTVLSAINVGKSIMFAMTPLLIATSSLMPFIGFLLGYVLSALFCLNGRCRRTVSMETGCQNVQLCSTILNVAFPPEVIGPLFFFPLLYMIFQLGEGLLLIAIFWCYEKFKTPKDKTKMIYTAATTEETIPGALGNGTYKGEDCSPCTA
As to conditions: native substrate, comparison value; cited from earlier work.

Take `NC(=O)c1ncn([C@@H]2O[C@H](CO)[C@@H](O)[C@H]2O)n1` [ribavirin, Ribavirin]: the Tmax (usually the time from dosing to the highest level) in the data set “in vivo” is 30 min.

Consider `C[C@H](CCC(=O)NCCS(=O)(=O)O)[C@H]1CC[C@H]2[C@@H]3[C@H](O)C[C@@H]4C[C@H](O)CC[C@]4(C)[C@H]3C[C@H](O)[C@]12C` [taurocholate], for which the Kt at human NTCP is 22.7 µM.
